The values below come from patent publication US8586973B2, “Host material for light-emitting diodes” (Solvay SA, priority 2008, dated 2013).

A short description of this data set: Solubility tests in organic solvents. The format is physicochemical. The settings on record: 20° C.; for Solubility S in chlorobenzene / Solubility S in toluene: 1 ml solvent, magnetic stirring. Here is the method:
The solubility tests were carried out at 20° C. by adding 1 ml of solvent to the suitable amount of compound powder in a sampling vial and under magnetic stirring.

Where only a bound is given, the exact number is not on record here.

For `CC(C)[Si](c1ccc2c(c1)c1ccccc1n2-c1ccc2c(c1)c1cc(-n3c4ccccc4c4cc([Si](C(C)C)(C(C)C)C(C)C)ccc43)ccc1n2-c1ccc(F)cc1)(C(C)C)C(C)C` [Compound VIII, 9-N-(4-Fluoro-phenyl)-3,6-Bis-[(3-Triisopropylsilylcarbazolyl)]carbazole], the “Solubility S in chlorobenzene (molar)” value was > 57 mM and the “Solubility S in chlorobenzene” value is > 51 mg/mL.
The corresponding values for `COc1ccc(-n2c3ccc(-n4c5ccc([Si](C(C)C)(C(C)C)C(C)C)cc5c5cc([Si](C(C)C)(C(C)C)C(C)C)ccc54)cc3c3cc(-n4c5ccc([Si](C(C)C)(C(C)C)C(C)C)cc5c5cc([Si](C(C)C)(C(C)C)C(C)C)ccc54)ccc32)cc1` [Compound VI, 9′-(4-Methoxy-phenyl)-3,6,3″,6″-tetrakis-triisopropylsilanyl-9′-[9,3′;6′,9″]tercarbazole] are > 45 mM and > 55 mg/mL.
The corresponding values for `COc1ccc(-n2c3ccc(-n4c5ccccc5c5cc([Si](C(C)C)(C(C)C)C(C)C)ccc54)cc3c3cc(-n4c5ccccc5c5cc([Si](C(C)C)(C(C)C)C(C)C)ccc54)ccc32)cc1` [Compound VII, 9-N-(4-Methoxy-phenyl)-3,6-Bis-[(3-Triisopropylsilylcarbazolyl)]carbazole] are > 62 mM and > 56 mg/mL.
Take `CC(C)[Si](c1ccc2c(c1)c1cc([Si](C(C)C)(C(C)C)C(C)C)ccc1n2-c1ccc(C2(c3ccc(-n4c5ccc([Si](C(C)C)(C(C)C)C(C)C)cc5c5cc([Si](C(C)C)(C(C)C)C(C)C)ccc54)cc3)c3ccccc3-c3ccccc32)cc1)(C(C)C)C(C)C` [Compound IV, 9,9-Bis-(4-phenyl-3,6,3″,6″-tetrakis-triisopropylsilanyl-9′H-carbazole)-9H-fluorene]: the “Solubility S in chlorobenzene (molar)” value is > 42 mM, the “Solubility S in chlorobenzene” value is > 54 mg/mL, the “Solubility S in toluene (molar)” value was > 31 mM and the “Solubility S in toluene” value was > 39 mg/mL.
The corresponding values for `CC(C)[Si](c1ccc2c(c1)c1ccccc1n2-c1ccc(C2(c3ccc(-n4c5ccccc5c5cc([Si](C(C)C)(C(C)C)C(C)C)ccc54)cc3)c3ccccc3-c3ccccc32)cc1)(C(C)C)C(C)C` [Compound IX, 9,9-Bis-[4-(3-Triisopropylsilylcarbazol)-phenyl]-fluorene] are > 59 mM, > 57 mg/mL, > 49 mM and > 47 mg/mL.
